Results as given in ChEMBL document CHEMBL1201862, “PubChem BioAssay data set” (2004).
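1) Cells in 96-well plates. 2) Compound, 48 h, 5 concentrations. 3) Linear interpolation between surrounding doses. 4) Unreached endpoint = highest concentration. GI50 = concentration required for 50% inhibition of growth.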 Active and inactive are the calls of the source. Rule as the data show it: active = GI50 up to about 1.1 µM and inactive = higher.

What was measured:
Test in all cases: DTP human tumour cell line panel, 48 h
A549 = test system: A549
BT-549 = test system: BT-549
DU-145 = test system: DU-145
HCT-15 = test system: HCT-15
IGROV-1 = test system: IGROV-1
M14 = test system: M14
MDA-MB-231 = test system: MDA-MB-231
NCI-H23 = test system: NCI-H23
NCI-H460 = test system: NCI-H460
NCI-H522 = test system: NCI-H522
OVCAR-3 = test system: OVCAR-3
OVCAR-5 = test system: OVCAR-5
SF-295 = test system: SF-295
SN12C = test system: SN12C
SNB-19 = test system: SNB-19
SNB-75 = test system: SNB-75
SR = test system: SR
SW-620 = test system: SW-620
UACC-257 = test system: UACC-257
UACC-62 = test system: UACC-62

Compound: CCN(CC)C(=S)SNCc1ccc(S(N)(=O)=O)cc1
- GI50 (A549): 12.3 µM (inactive)
- GI50 (BT-549): 18.5 µM (inactive)
- GI50 (DU-145): 15.5 µM (inactive)
- GI50 (HCT-15): 19.1 µM
- GI50 (IGROV-1): 13.1 µM (inactive)
- GI50 (M14): 10.7 µM (inactive)
- GI50 (MDA-MB-231): 18.1 µM (inactive)
- GI50 (NCI-H23): 19.3 µM (inactive)
- GI50 (NCI-H460): 1.34 µM (inactive)
- GI50 (NCI-H522): 0.0191 µM (active)
- GI50 (OVCAR-3): 14.4 µM (inactive)
- GI50 (OVCAR-5): 14 µM (inactive)
- GI50 (SF-295): 9.06 µM (inactive)
- GI50 (SN12C): 15.5 µM (inactive)
- GI50 (SNB-19): 16 µM (inactive)
- GI50 (SNB-75): 18.5 µM (inactive)
- GI50 (SR): 1.28 µM (inactive)
- GI50 (SW-620): 20 µM (inactive)
- GI50 (UACC-257): 17.1 µM (inactive)
- GI50 (UACC-62): 24.9 µM (inactive)

Compound: CC1(CCCCO)C=CC(S(=O)(=O)c2ccccc2)CC1 (stereo not given)
- GI50 (A549): 3.64 µM (inactive)
- GI50 (BT-549): 14.4 µM (inactive)
- GI50 (DU-145): 5.14 µM (inactive)
- GI50 (HCT-15): 3.69 µM
- GI50 (IGROV-1): 2.38 µM (inactive)
- GI50 (M14): 3.4 µM (inactive)
- GI50 (MDA-MB-231): 4.31 µM (inactive)
- GI50 (NCI-H23): 5.04 µM (inactive)
- GI50 (NCI-H460): 3.15 µM (inactive)
- GI50 (NCI-H522): 1.87 µM (inactive)
- GI50 (OVCAR-3): 6.17 µM (inactive)
- GI50 (OVCAR-5): 4.85 µM (inactive)
- GI50 (SF-295): 12 µM (inactive)
- GI50 (SN12C): 11 µM (inactive)
- GI50 (SNB-19): 13.6 µM (inactive)
- GI50 (SNB-75): 1.46 µM (inactive)
- GI50 (SR): 2.33 µM (inactive)
- GI50 (SW-620): 5.87 µM (inactive)
- GI50 (UACC-257): 4.41 µM (inactive)
- GI50 (UACC-62): 6.15 µM (inactive)

Compound: Oc1nc(-c2cccc(F)c2)nc2ccccc12
- GI50 (A549): 51.6 µM (inactive)
- GI50 (BT-549): > 46.9 µM (inactive)
- GI50 (DU-145): > 100 µM (inactive)
- GI50 (HCT-15): > 100 µM
- GI50 (IGROV-1): 57.1 µM (inactive)
- GI50 (M14): 62.1 µM (inactive)
- GI50 (MDA-MB-231): > 42.2 µM (inactive)
- GI50 (NCI-H23): 32.5 µM (inactive)
- GI50 (NCI-H460): 36.1 µM (inactive)
- GI50 (NCI-H522): 43.9 µM (inactive)
- GI50 (OVCAR-3): > 54.2 µM (inactive)
- GI50 (OVCAR-5): > 100 µM (inactive)
- GI50 (SF-295): 39.4 µM (inactive)
- GI50 (SN12C): > 49.9 µM (inactive)
- GI50 (SNB-19): 19.9 µM (inactive)
- GI50 (SNB-75): 16.6 µM (inactive)
- GI50 (SR): > 77.3 µM (inactive)
- GI50 (SW-620): > 87.7 µM (inactive)
- GI50 (UACC-257): > 91.6 µM (inactive)
- GI50 (UACC-62): 23.1 µM (inactive)

Compound: COC(=O)/C=C\C(C#N)(C#N)/N=C/c1ccc(C)cc1
- GI50 (A549): 17.7 µM (inactive)
- GI50 (BT-549): 5.02 µM (inactive)
- GI50 (DU-145): 5.86 µM (inactive)
- GI50 (HCT-15): 2.56 µM
- GI50 (IGROV-1): 13.1 µM (inactive)
- GI50 (M14): 2.01 µM (inactive)
- GI50 (MDA-MB-231): 15.5 µM (inactive)
- GI50 (NCI-H23): 5.57 µM (inactive)
- GI50 (NCI-H460): 19.6 µM (inactive)
- GI50 (NCI-H522): 0.378 µM (active)
- GI50 (OVCAR-3): 2.6 µM (inactive)
- GI50 (OVCAR-5): 19.7 µM (inactive)
- GI50 (SF-295): 25.2 µM (inactive)
- GI50 (SN12C): 13.2 µM (inactive)
- GI50 (SNB-19): 19.5 µM (inactive)
- GI50 (SNB-75): 15.3 µM (inactive)
- GI50 (SR): 0.706 µM (active)
- GI50 (SW-620): 1.95 µM (inactive)
- GI50 (UACC-257): 4.24 µM (inactive)
- GI50 (UACC-62): 14.9 µM (inactive)

Compound: COC1=N[C@H](C(C)C)C(OC)=N[C@H]1Cc1ccc(C[C@@H]2N=C(OC)[C@@H](C(C)C)N=C2OC)s1
- GI50 (A549): 29 µM (inactive)
- GI50 (BT-549): > 100 µM (inactive)
- GI50 (DU-145): 33.2 µM (inactive)
- GI50 (HCT-15): 46.1 µM
- GI50 (IGROV-1): > 100 µM (inactive)
- GI50 (M14): 36 µM (inactive)
- GI50 (MDA-MB-231): 27.6 µM (inactive)
- GI50 (NCI-H23): 25.1 µM (inactive)
- GI50 (NCI-H460): 58.3 µM (inactive)
- GI50 (NCI-H522): 23.7 µM (inactive)
- GI50 (OVCAR-3): 58.9 µM (inactive)
- GI50 (OVCAR-5): 17.5 µM (inactive)
- GI50 (SF-295): 38.2 µM (inactive)
- GI50 (SN12C): 43.3 µM (inactive)
- GI50 (SNB-19): 54.5 µM (inactive)
- GI50 (SNB-75): > 100 µM (inactive)
- GI50 (SR): 19.5 µM (inactive)
- GI50 (SW-620): 39.9 µM (inactive)
- GI50 (UACC-257): 26.3 µM (inactive)
- GI50 (UACC-62): 45.1 µM (inactive)

Compound: CC1(C)C2CCC(=O)C1C(OCc1ccccc1)C2 (stereo not given)
- GI50 (A549): 21.9 µM (inactive)
- GI50 (BT-549): 94 µM (inactive)
- GI50 (DU-145): > 100 µM (inactive)
- GI50 (HCT-15): > 100 µM
- GI50 (IGROV-1): > 100 µM (inactive)
- GI50 (M14): > 100 µM (inactive)
- GI50 (MDA-MB-231): > 100 µM (inactive)
- GI50 (NCI-H23): > 100 µM (inactive)
- GI50 (NCI-H460): > 100 µM (inactive)
- GI50 (NCI-H522): > 100 µM (inactive)
- GI50 (OVCAR-3): > 100 µM (inactive)
- GI50 (OVCAR-5): > 100 µM (inactive)
- GI50 (SF-295): > 100 µM (inactive)
- GI50 (SN12C): > 100 µM (inactive)
- GI50 (SNB-19): > 100 µM (inactive)
- GI50 (SNB-75): > 100 µM (inactive)
- GI50 (SR): 29.8 µM (inactive)
- GI50 (SW-620): > 100 µM (inactive)
- GI50 (UACC-257): 85.7 µM (inactive)
- GI50 (UACC-62): > 100 µM (inactive)

Compound: COc1cc(/C=C2/SC(c3ccccc3)N(c3cc(Cl)ccc3Cl)C2=O)cc(OC)c1OC (stereo not given)
- GI50 (A549): > 100 µM (inactive)
- GI50 (BT-549): > 100 µM (inactive)
- GI50 (DU-145): > 100 µM (inactive)
- GI50 (HCT-15): 50.6 µM
- GI50 (IGROV-1): 44.9 µM (inactive)
- GI50 (M14): 50.9 µM (inactive)
- GI50 (MDA-MB-231): > 100 µM (inactive)
- GI50 (NCI-H23): > 100 µM (inactive)
- GI50 (NCI-H460): > 100 µM (inactive)
- GI50 (NCI-H522): 47.1 µM (inactive)
- GI50 (OVCAR-3): 52.2 µM (inactive)
- GI50 (OVCAR-5): > 100 µM (inactive)
- GI50 (SF-295): 47.1 µM (inactive)
- GI50 (SN12C): > 100 µM (inactive)
- GI50 (SNB-19): > 100 µM (inactive)
- GI50 (SNB-75): 45.1 µM (inactive)
- GI50 (SR): 45.5 µM (inactive)
- GI50 (SW-620): 49.9 µM (inactive)
- GI50 (UACC-257): > 100 µM (inactive)
- GI50 (UACC-62): 44.2 µM (inactive)
